For 23 compounds, EC50 results are on record in US10407410B2, “Pyridin-3-yl acetic acid derivatives as inhibitors of human immunodeficiency virus replication” (priority 2016, dated 2019).

This experiment concerns NL-RLuc virus (HIV). Put plainly: Inhibition of HIV replication (NL-RLuc luciferase reporter virus in MT-2 cells). Format: cell-based. The note with it: Human immunodeficiency virus 1, MT2, 120 h. The source says:
Inhibition of HIV Replication
A recombinant NL-RLuc proviral clone was constructed in which a section of the nef gene from NL4-3 was replaced with the Renilla Luciferase gene. This virus is fully infectious and can undergo multiple cycles of replication in cell culture. In addition, the luciferous reporter provides a simple and easy method for quantitating the extent of virus growth and consequently, the antiviral activity of test compounds. The plasmid pNLRLuc contains the proviral NL-Rluc DNA cloned into pUC18 at the PvuII site. The NL-RLuc virus was prepared by transfection of 293T cells with the plasmid pNLRLuc. Transfections were performed using the LipofectAMINE PLUS kit from Invitrogen (Carlsbad, Calif.) according to the manufacturer and the virus generated was titered in MT-2 cells. For susceptibility analyses, the titrated virus was used to infect MT-2 cells in the presence of compound, and after 5 days of incubation, cells were processed and quantitated for virus growth by the amount of expressed luciferase. Assay media was RPMI 1640 supplemented with 10% heat inactivated fetal bovine serum (FBS), 100 units/ml penicillin G/100 units/ml streptomycin, 10 mM HEPES buffer pH 7.55 and 2 mM L-glutamine. The results from at least 2 experiments were used to calculate the EC50 values. Luciferase was quantitated using the Dual Luciferase kit from Promega (Madison, Wis.). Susceptibility of viruses to compounds was determined by incubation in the presence of serial dilutions of the compound. The 50% effective concentration (EC50) was calculated by using the exponential form of the median effect equation where (Fa)=1/[1+(ED50/drug conc.)^m] (Johnson V A, Byington R T. Infectivity Assay. In Techniques in HIV Research. ed. Aldovini A, Walker B D. 71-76. New York: Stockton Press. 1990).
`Cc1cccc(C2CCc3cc(-c4c(CO)nc(C)c([C@H](OC(C)(C)C)C(=O)O)c4N4CCC(C)(C)CC4)ccc3O2)n1` (stereo partly drawn) [Example 45, (2S)-2-tert-Butoxy-2-(4-(4,4-dimethylpiperidin-1-yl)-6-(hydroxymethyl)-2-methyl-5-(2-(6-methylpyridin-2-yl)chroman-6-yl)pyridin-3-yl)acetic acid] returned an EC50 of 7 nM.
With `Cc1nc(C)c([C@H](OC(C)(C)C)C(=O)O)c(N2CCC(C)(C)CC2)c1-c1ccc2[nH]c(=O)cc(OCc3ccc(F)cc3)c2c1` [Example 18, (S)-2-(tert-butoxy)-2-(4-(4,4-dimethylpiperidin-1-yl)-5-(4-((4-fluorobenzyl)oxy)-2-oxo-1,2-dihydroquinolin-6-yl)-2,6-dimethylpyridin-3-yl)acetic acid] the figure was 504 nM; with `Cc1nc(C)c([C@H](OC(C)(C)C)C(=O)O)c(N2CCC(C)(C)CC2)c1-c1ccc2c(c1)CCC(COc1cccc(F)c1F)O2` (stereo partly drawn) [Example 41, (2S)-2-tert-Butoxy-2-(5-(2-((2,3-difluorophenoxy)methyl)chroman-6-yl)-4-(4,4-dimethylpiperidin-1-yl)-2,6-dimethylpyridin-3-yl)acetic acid], 3 nM; with `Cc1nc(CO)c(-c2ccc3c(c2)CCC(c2ccc(F)cc2)O3)c(N2CCC(C)(C)CC2)c1[C@H](OC(C)(C)C)C(=O)O` (stereo partly drawn) [Example 43, (2S)-2-tert-Butoxy-2-(4-(4,4-dimethylpiperidin-1-yl)-5-(2-(4-fluorophenyl)chroman-6-yl)-6-(hydroxymethyl)-2-methylpyridin-3-yl)acetic acid], 7 nM.
As for `Cc1nc(C)c([C@H](OC(C)(C)C)C(=O)O)c(N2CCC(C)(C)CC2)c1-c1ccc2c(c1)CCN(Cc1ccc(F)cc1)C2=O` [Example 14, (S)-2-(tert-butoxy)-2-(4-(4,4-dimethylpiperidin-1-yl)-5-(2-(4-fluorobenzyl)-1-oxo-1,2,3,4-tetrahydroisoquinolin-6-yl)-2,6-dimethylpyridin-3-yl)acetic acid], the EC50 was found to be 6 nM.
The same measure for `Cc1nc(C)c([C@H](OC(C)(C)C)C(=O)O)c(N2CCC(C)(C)CC2)c1-c1ccc2[nH]c(=O)cc(O)c2c1` [Example 12, (S)-2-(tert-butoxy)-2-(4-(4,4-dimethylpiperidin-1-yl)-5-(4-hydroxy-2-oxo-1,2-dihydroquinolin-6-yl)-2,6-dimethylpyridin-3-yl)acetic acid]: 4960 nM.
The same measure for `Cc1nc(C)c([C@H](OC(C)(C)C)C(=O)O)c(N2CCC(C)(C)CC2)c1-c1ccc2c(c1)CNC2=O` [Example 11, (S)-2-(tert-butoxy)-2-(4-(4,4-dimethylpiperidin-1-yl)-2,6-dimethyl-5-(1-oxoisoindolin-5-yl)pyridin-3-yl)acetic acid]: 1680 nM; for `Cc1nc(C)c([C@H](OC(C)(C)C)C(=O)O)c(N2CCC(C)(C)CC2)c1-c1ccc2[nH]c(=O)[nH]c2c1` [Example 8, (S)-2-(tert-butoxy)-2-(4-(4,4-dimethylpiperidin-1-yl)-2,6-dimethyl-5-(2-oxo-2,3-dihydro-1H-benzo[d]imidazol-5-yl)pyridin-3-yl)acetic acid]: 7060 nM.
The compound `Cc1cccc(C2CCc3cc(-c4c(C)nc(C)c([C@H](OC(C)(C)C)C(=O)O)c4N4CCC(C)(C)CC4)ccc3O2)n1` (stereo partly drawn) [Example 44, (2S)-2-tert-Butoxy-2-(4-(4,4-dimethylpiperidin-1-yl)-2,6-dimethyl-5-(2-(6-methylpyridin-2-yl)chroman-6-yl)pyridin-3-yl)acetic acid] yielded an EC50 of 8 nM.
The compound `Cc1ccc(C[C@H]2CCc3cc(-c4c(C)nc(C)c([C@H](OC(C)(C)C)C(=O)O)c4N4CCC(C)(C)CC4)ccc3O2)c(F)c1` [Example 31, (S)-2-tert-Butoxy-2-(4-(4,4-dimethylpiperidin-1-yl)-5-((R)-2-(2-fluoro-4-methylbenzyl)chroman-6-yl)-2,6-dimethylpyridin-3-yl)acetic acid] showed an EC50 of 3 nM.
The same measure for `Cc1nc(C)c([C@H](OC(C)(C)C)C(=O)O)c(N2CCC(C)(C)CC2)c1-c1coc2ccccc12` [Example 7, (2S)-2-(5-(benzofuran-3-yl)-4-(4,4-dimethylpiperidin-1-yl)-2,6-dimethylpyridin-3-yl)-2-(tert-butoxy)acetic acid]: 288 nM; for `Cc1nc(C)c([C@H](OC(C)(C)C)C(=O)O)c(N2CCC(C)(C)CC2)c1-c1ccc2c(c1)CN(Cc1ccc(F)cc1)C2=O` [Example 13, (S)-2-(tert-butoxy)-2-(4-(4,4-dimethylpiperidin-1-yl)-5-(2-(4-fluorobenzyl)-1-oxoisoindolin-5-yl)-2,6-dimethylpyridin-3-yl)acetic acid]: 12 nM.
For the compound `Cc1nc(C)c([C@H](OC(C)(C)C)C(=O)O)c(N2CCC(C)(C)CC2)c1-c1ccc2c(c1)CC[C@](C)(Cc1ccc(F)cc1)O2` [Example 38, (S)-2-tert-Butoxy-2-(4-(4,4-dimethylpiperidin-1-yl)-5-((R)-2-(4-fluorobenzyl)-2-methylchroman-6-yl)-2,6-dimethylpyridin-3-yl)acetic acid], the EC50 turned out to be 4 nM.
`Cc1ccc(C[C@@H]2CCc3cc(-c4c(C)nc(C)c([C@H](OC(C)(C)C)C(=O)O)c4N4CCC(C)(C)CC4)ccc3O2)c(F)c1` [Example 30, (S)-2-tert-Butoxy-2-(4-(4,4-dimethylpiperidin-1-yl)-5-((S)-2-(2-fluoro-4-methylbenzyl)chroman-6-yl)-2,6-dimethylpyridin-3-yl)acetic acid] returned an EC50 of 5 nM.
`Cc1nc(C)c([C@H](OC(C)(C)C)C(=O)O)c(N2CCC(C)(C)CC2)c1-c1ccc2c(c1)CN(Cc1ccc(F)cc1)C2` [Example 21, (S)-2-(tert-butoxy)-2-(4-(4,4-dimethylpiperidin-1-yl)-5-(2-(4-fluorobenzyl)isoindolin-5-yl)-2,6-dimethylpyridin-3-yl)acetic acid] showed an EC50 of 30 nM.
The same measure for `Cc1nc(C)c([C@H](OC(C)(C)C)C(=O)O)c(N2CCC(C)(C)CC2)c1-c1ccc2sc(C(=O)O)cc2c1` [Example 6, (S)-5-(5-(tert-butoxy(carboxy)methyl)-4-(4,4-dimethylpiperidin-1-yl)-2,6-dimethylpyridin-3-yl)benzo[b]thiophene-2-carboxylic acid]: 66000 nM.
With `Cc1nc(C)c([C@H](OC(C)(C)C)C(=O)O)c(N2CCC(C)(C)CC2)c1-c1ccc2c(c1)CC[C@H](Cc1ccc(F)cc1)O2` [Example 35, (S)-2-tert-Butoxy-2-(4-(4,4-dimethylpiperidin-1-yl)-5-((R)-2-(4-fluorobenzyl)chroman-6-yl)-2,6-dimethylpyridin-3-yl)acetic acid] the figure was 3 nM; with `Cc1nc(C)c([C@H](OC(C)(C)C)C(=O)O)c(N2CCC(C)(C)CC2)c1-c1ccc2c(c1)CN(C(=O)c1ccc(F)cc1)C2` [Example 22, (S)-2-(tert-butoxy)-2-(4-(4,4-dimethylpiperidin-1-yl)-5-(2-(4-fluorobenzoyl)isoindolin-5-yl)-2,6-dimethylpyridin-3-yl)acetic acid], 53 nM.
`Cc1nc(C)c([C@H](OC(C)(C)C)C(=O)O)c(N2CCC(C)(C)CC2)c1-c1ccc2c(c1)CC[C@@](C)(Cc1ccc(F)cc1)O2` [Example 39, (S)-2-tert-Butoxy-2-(4-(4,4-dimethylpiperidin-1-yl)-5-((S)-2-(4-fluorobenzyl)-2-methylchroman-6-yl)-2,6-dimethylpyridin-3-yl)acetic acid] registered an EC50 of 3 nM.
Compound `Cc1nc(C)c([C@H](OC(C)(C)C)C(=O)O)c(N2CCC(C)(C)CC2)c1-c1ccc2c(c1)CC[C@@H](Cc1ccc(F)c(F)c1)O2` [Example 28, (S)-2-tert-Butoxy-2-(5-((S)-2-(3,4-difluorobenzyl)chroman-6-yl)-4-(4,4-dimethylpiperidin-1-yl)-2,6-dimethylpyridin-3-yl)acetic acid] had an EC50 of 2 nM.
The same measure for `Cc1nc(C)c([C@H](OC(C)(C)C)C(=O)O)c(N2CCC(C)(C)CC2)c1-c1ccc2c(c1)CCC(c1ccc(F)cc1)O2` (stereo partly drawn) [Example 42, (2S)-2-tert-Butoxy-2-(4-(4,4-dimethylpiperidin-1-yl)-5-(2-(4-fluorophenyl)chroman-6-yl)-2,6-dimethylpyridin-3-yl)acetic acid]: 7 nM; for `Cc1nc(C)c([C@H](OC(C)(C)C)C(=O)O)c(N2CCC(C)(C)CC2)c1-c1ccc2c(c1)CC[C@@H](Cc1ccc(F)cc1)O2` [Example 34, (S)-2-tert-Butoxy-2-(4-(4,4-dimethylpiperidin-1-yl)-5-((S)-2-(4-fluorobenzyl)chroman-6-yl)-2,6-dimethylpyridin-3-yl)acetic acid]: 2 nM; for `Cc1nc(C)c([C@H](OC(C)(C)C)C(=O)O)c(N2CCC(C)(C)CC2)c1-c1cnc2ccccc2c1` [Example 2, (S)-2-(tert-butoxy)-2-(4-(4,4-dimethylpiperidin-1-yl)-2,6-dimethyl-5-(quinolin-3-yl)pyridin-3-yl)acetic acid]: 73 nM.
